US20060100259A1, “Process for the preparation of substituted triazole compounds” (priority 2004, published 2006)

melting point [°C] | SMILES
222.5 to 224 | Cc1ccc(C(=O)n2nc(Nc3ccccc3)nc2N)cc1 [Compound #25, N^3-phenyl-1-(4′-methylbenzoyl)-1,2,4-triazole-3,5-diamine]
251 to 253 | Nc1nc(Nc2ccc(S(N)(=O)=O)cc2)nn1C(=O)c1cccc(C(F)(F)F)c1 [Compound #6, N^3-[(4-aminosulfonyl)phenyl]-1-[3′-(trifluoromethyl)benzoyl]-1H-1,2,4-triazole-3,5-diamine]
237 to 242.5 | Nc1nc(Nc2ccc(S(N)(=O)=O)cc2)nn1C(=O)c1ccccc1Cl [Compound #2, N^3-[(4-aminosulfonyl)phenyl]-1-(2′-chlorobenzoyl)-1H-1,2,4-triazole-3,5-diamine]
244.5 to 247.5 | COc1ccc(C(=O)n2nc(Nc3ccc(S(N)(=O)=O)cc3)nc2N)cc1 [Compound #12, N^3-[(4-aminosulfonyl)phenyl]-1-(4′-methoxybenzoyl)-1H-1,2,4-triazole-3,5-diamine]
> 300 | Nc1nc(Nc2ccc(S(N)(=O)=O)cc2)nn1C(=O)c1ccc(O)cc1 [Compound #10, N^3-[(4-aminosulfonyl)phenyl]-1-(4′-hydroxybenzoyl)-1H-1,2,4-triazole-3,5-diamine]
242 to 244 | Nc1nc(Nc2ccc(S(N)(=O)=O)cc2)nn1C(=O)c1cccc(Br)c1 [Compound #7, N^3-[(4-aminosulfonyl)phenyl]-1-(3′-bromobenzoyl)-1H-1,2,4-triazole-3,5-diamine]
> 260 | Nc1nc(Nc2ccc(S(N)(=O)=O)cc2)nn1C(=O)c1ccc(Cl)cc1 [Compound #28, N^3-[(4-aminosulfonyl)phenyl]-1-(4′-chlorobenzoyl)-1H-1,2,4-triazole-3,5-diamine]
336 to 338 | Nc1nc(Nc2ccc(S(N)(=O)=O)cc2)nn1C(=O)c1ccc([N+](=O)[O-])cc1 [Compound #9, N^3-[(4-aminosulfonyl)phenyl]-1-(4′-nitrobenzoyl)-1H-1,2,4-triazole-3,5-diamine]
260 to 262 | Nc1nc(Nc2ccc(S(N)(=O)=O)cc2)nn1C(=O)c1cccc([N+](=O)[O-])c1 [Compound #5, N^3-[(4-aminosulfonyl)phenyl]-1-(3′-nitrobenzoyl)-1H-1,2,4-triazole-3,5-diamine]
217 to 221.5 | COc1ccccc1C(=O)n1nc(Nc2ccc(S(N)(=O)=O)cc2)nc1N [Compound #3, N^3-[(4-aminosulfonyl)phenyl]-1-(2′-methoxybenzoyl)-1H-1,2,4-triazole-3 5-diamine]
201 to 202 | Nc1nc(Nc2ccccc2)nn1C(=O)c1ccco1 [Compound #31, N^3-phenyl-1-(2-furoyl)-1,2,4-triazole-3,5-diamine]
> 300 | Nc1nc(Nc2ccc(S(N)(=O)=O)cc2)nn1C(=O)c1ccco1 [Compound #17, N^3-[(4-aminosulfonyl)phenyl]-1-(2′-furoyl)-1H-1,2,4-triazole-3,5-diamine]
174 to 184 | COc1cccc(C(=O)n2nc(Nc3ccccc3)nc2N)c1 [Compound #30, N^3-phenyl-1-(3′-methoxybenzoyl)-1,2,4-triazole-3,5-diamine]
89.5 to 94 | COc1ccccc1C(=O)n1nc(Nc2ccccc2)nc1N [Compound #29, N^3-phenyl-1-(2′methoxybenzoyl)-1,2,4-triazole-3,5-diamine]
246 to 248 | Nc1nc(Nc2ccc(S(N)(=O)=O)cc2)nn1C(=O)c1ccccc1Br [Compound #4, N^3-[(4-aminosulfonyl)phenyl]-1-(2′-bromobenzoyl)-1H-1,2,4-triazole-3,5-diamine]
334 to 336 | CC(=O)n1nc(Nc2ccc(S(N)(=O)=O)cc2)nc1N [Compound #16, N^3-[(4-aminosulfonyl)phenyl]-1-acetyl-1H-1,2,4-triazole-3,5-diamine]
